Consider seven molecules from patent US10532054B2, “Compounds for the prevention and treatment of cardiovascular diseases” (Resverlogix Corp., priority 2007, dated 2020).

Broadly, the melting point is the temperature of the solid-liquid transition.

One series has as its system ApoA-I mRNA. The experiment in a line: Quantification of ApoA-I mRNA in HepG2 cells. In kind it is cell-based. Set-up: key: Active: An active compound is one that causes a >15% increase in ApoA-I mRNA at a concentration less than or equal to 100 uM. The settings on record: concentration less than or equal to 100 uM. As to the method: In this example, ApoA-I mRNA in tissue culture cells was quantitated to measure the transcriptional up-regulation of ApoA-I when treated with a compound of the invention.
HepG2 cells (˜2×10^5 per well) were placed in a 24-well plate in ˜400 μL MEM, supplemented with 0.5% (v/v) FBS, 24 h before addition of the compound of interest. At time of harvesting, the spent media was removed from the HepG2 cells and immediately placed on ice (for immediate use) or at −80° C. (for future use) in ApoA-I and albumin ELISAs. The cells remaining in the plate wells were rinsed in 200 μL PBS. PBS was carefully removed to avoid removing any loosely attached cells.
Once the PBS was removed, 85 μL cell lysis solution was added the cells in each well and incubated for 5-10 min at room temperature, to allow for complete cell lysis and detachment. mRNA was then prepared using the “mRNA Catcher PLUS plate” from Invitrogen, according to the protocol supplied. […]
The eluted mRNA isolated was then used in a one-step real-time […] reaction, using components of the Ultra Sense Kit together with Applied Biosystems primer-probe mixes. Real-time PCR data was analyzed, using the Ct values, to determine the fold induction of each unknown sample, relative to the control (that is, relative to the control for each independent DMSO concentration). […]

For series [1] the following is noted: subjects with low HDL-C; cited from earlier work.
For series [2] the following is noted: following oral administration; cited from earlier work.

Regarding “4-(1-Oxo-1,2-dihydroisoquinolin-3)phenyl 2-amino-5-guanidinopentanoate trihydrochloride [Example 4]”, in the series on ApoA-I mRNA, the “Effect on ApoA-I mRNA levels” value is listed as “Active”. In turn, `Cc1cc(-c2nc3cc(Cl)cc(Cl)c3c(=O)[nH]2)cc(C)c1OCCO` [Example 80, 5,7-dichloro-2-(4-(2-hydroxyethoxy)-3,5-dimethylphenyl)quinazolin-4(3H)-one] had a melting point of 260.8 to 262.6 °C. In turn, `COc1cc2nc(-c3cc(C)c(O)c(C)c3)[nH]c(=O)c2c(OC)c1CN1CCOCC1` [Example 81, 2-(4-hydroxy-3,5-dimethylphenyl)-5,7-dimethoxy-6-(morpholinomethyl)quinazolin-4(3H)-one] registered a melting point of 237 to 239.1 °C. For `COc1cc(OC)c2c(=O)[nH]c(-c3ccc(OCC(=O)O)c(OC)c3)nc2c1` [Example 103, 2-(4-(5,7-dimethoxy-4-oxo-3,4-dihydroquinazolin-2-yl)2-methoxyphenoxy)acetic acid], the melting point fell in the range of 275 to 277 °C. `COc1cc(O)c2c(=O)[nH]c(-c3cc(C)c(O)c(C)c3)nc2c1` [Example 104, 5-hydroxy-2-(4-hydroxy-3,5-dimethylphenyl)-7-methoxyquinazolin-4(3H)-one] came in with a melting point of 291.3 to 293 °C. For `Cc1ccc(C)c(OCCCC(C)(C)C(=O)O)c1` [gemfibrozil], in series [1], the “increase in the HDL-C level” value is 6% and the “reduction of the CHD risk” value is reported as 22%.

`O=c1c(O)c(-c2ccc(O)c(O)c2)oc2cc(O)cc(O)c12` [quercetin]: the intestinal absorption entry in series [2] is reported as “less than 1%”.
